{"source": "ChEMBL document CHEMBL1134885", "about": "“Synthesis and thrombolytic activity of pseudopeptides related to fibrinogen fragment” (2002)", "format_in_all_cases": "functional", "key": {"[1]": {"test_system": "Rattus norvegicus", "test": "The reduction of thrombolytic mass by the compound was calculated at a dose of 5.4 mg/Kg"}, "[2]": {"test_system": "Rattus norvegicus", "test": "The reduction of thrombolytic mass by the compound was calculated at a dose of 8 mg/kg"}, "[3]": {"test_system": "Rattus norvegicus", "test": "The reduction of thrombolytic mass by the compound was calculated at a dose of 7.2 mg/Kg"}, "[4]": {"test_system": "Rattus norvegicus", "test": "The reduction of thrombolytic mass by the compound was calculated at a dose of 5.3 mg/Kg"}, "[5]": {"test_system": "Rattus norvegicus", "test": "The reduction of thrombolytic mass by the compound was calculated at a dose of 7.4 mg/Kg"}, "[6]": {"test_system": "Rattus norvegicus", "test": "The reduction of thrombolytic mass by the compound was calculated at a dose of 6 mg/kg"}}, "note": "Square brackets hold non-standard residues; d marks the D form. Peptide text beside a SMILES is read from it. Tpi = O=C(O)[C@@H]1Cc2c([nH]c3ccccc23)CN1", "data": [{"compound": "H-ARPAK-OH", "values": [{"measurement": "Activity", "setting": "[1]", "result": 18.84, "unit": "mg"}]}, {"compound": "C[C@H](NC(=O)[C@@H]1CCCN1C(=O)[C@H](CCCN=C(N)N)NC(=O)[C@H](CCC(N)=O)NC(=O)[C@@H]1Cc2c([nH]c3ccccc23)CN1)C(=O)N[C@@H](CCCCN)C(=O)O", "note": "(H-[Tpi]QRPAK-OH)", "values": [{"measurement": "Activity", "setting": "[2]", "result": 17.27, "unit": "mg"}]}, {"compound": "C[C@H](NC(=O)[C@@H]1CCCN1C(=O)[C@H](CCCN=C(N)N)NC(=O)CNC(=O)[C@@H]1Cc2c([nH]c3ccccc23)CN1)C(=O)N[C@@H](CCCCN)C(=O)O", "note": "(H-[Tpi]GRPAK-OH)", "values": [{"measurement": "Activity", "setting": "[3]", "result": 19.7, "unit": "mg"}]}, {"compound": "H-GRPAK-OH", "values": [{"measurement": "Activity", "setting": "[4]", "result": 25.9, "unit": "mg"}]}, {"compound": "C[C@H](NC(=O)[C@@H]1Cc2c([nH]c3ccccc23)CN1)C(=O)N[C@@H](CCCN=C(N)N)C(=O)N1CCC[C@H]1C(=O)N[C@@H](C)C(=O)N[C@@H](CCCCN)C(=O)O", "note": "(H-[Tpi]ARPAK-OH)", "values": [{"measurement": "Activity", "setting": "[5]", "result": 16.13, "unit": "mg"}]}, {"compound": "H-QRPAK-OH", "values": [{"measurement": "Activity", "setting": "[6]", "result": 21.28, "unit": "mg"}]}]}
